Consider 1 molecule from patent US12491180B2, “Application of compound in treating pneumonia” (SHENZHEN OPTIMUM BIOLOGICAL TECHNOLOGY CO., LTD., priority 2019, dated 2025).

Converted amounts (≈) assume the structure as drawn.

Common to all, as to test: MIC, solid dilution method
Experiment [1] relates to Citrobacter freundii 9484. The class given is cell-based. The following applies: C.f 9484, CRE clinical isolate, MHA agar, 37° C., 16-20 hours, read-out: MIC. As for the experimental part: (§1) CRE Citrobacter freundii 9434, 9484 and CSE Citrobacter freundii 7646, a total of 3 strains;
(§2) The above-mentioned glycerol-preserved strains were taken out from the −80° C. refrigerator, streaked and inoculated on MHA plates, labeled, and cultured overnight in a 37° C. incubator.
(§3) The inoculum was prepared directly from bacterial suspension, and several recovered colonies were picked and directly prepared into a bacterial suspension with a turbidity of No. 0.5 McFarland units in normal saline, and a 10-fold dilution was made during inoculation.
(§4) 6 bottles of MHA culture medium 500 mL/bottle were prepared, and the pH was adjusted to 7.2-7.4, sterilized at 121° C. for 15 min, and the medium was placed in a 55° C. water bath to keep warm.
(§5) Sterile blank petri dishes were taken, and marked with each FL drug/concentration according to 2-fold dilution, and 10 concentrations of each drug starting from 8 μg/mL were tested.
(§6) […]; 20 mL was aspirated and added to a petri dish consistent with the mark, and then 20 mL of MHA culture medium was added to the rest of the drug-containing culture medium, mixed evenly, that is, the 2-fold diluted drug-containing culture medium; 20 mL was aspirated and added to the petri dish consistent with the mark, and then diluted to the 10th concentration and the […] respectively by repeating the above-mentioned steps, and then poured into the petri dish.
(§7) 4 bacterial control petri dishes without drug were prepared at the same time as a control.
(§8) The positioning needle and the inoculation needle were installed according to the order of placement of the colony on the inoculation plate. After inoculation, a bacterial solution circle was formed on the petri dish. After the bacterial solution was absorbed by the agar, the petri dish was placed in an incubator at 37° C. for overnight incubation (16-20 hours), and then taken out.
(§9) The minimum inhibitory concentrations of the compounds against the CRE and CSE strains were determined by the solid dilution method, and the results are shown in Tables 3 and 4.

For experiment [2], the system named is Citrobacter freundii 9434. The class given is cell-based. The following applies: 9434. As for the experimental part:
as §1, §2, §3, §4, §5, §6, §7, §8, §9

For experiment [3], the system named is Citrobacter freundii 7646. The class given is cell-based. The following applies: C.f 7646, CSE clinical isolate, MHA agar, 37° C., 16-20 hours, read-out: MIC. The protocol: as §1, §2, §3, §4, §5, §6, §7, §8, §9
Experiment [4] has as its system Escherichia coli BAA-2452. In kind it is cell-based. To be noted: BAA2452, E. coli BAA-2452, standard strain, MHA agar, 37° C., 16-20 hours, read-out: MIC. The protocol: (§10) (1) Standard strains: Escherichia coli BAA-2452, Escherichia coli ATCC25922, Klebsiella pneumoniae BAA-1705; all purchased from ATCC.
as §2, §3, §4, §5, §6, §7, §8, §9

Experiment [5] has as its system Escherichia coli ATCC25922. The class given is cell-based. The following applies: E. coli ATCC25922, standard strain, MHA agar, 37° C., 16-20 hours, read-out: MIC. The protocol: as §10, §2, §3, §4, §5, §6, §7, §8, §9
For experiment [6], the system named is Klebsiella pneumoniae BAA-1705. The class given is cell-based. The following applies: BAA1705. As for the experimental part:
as §10, §2, §3, §4, §5, §6, §7, §8, §9

A further experiment has as its system Klebsiella oxytoca 12391. In kind it is cell-based. The following applies: K. ox 12391, CRE clinical isolate, MHA agar, 37° C., 16-20 hours, read-out: MIC. As for the experimental part:
as §2, §3, §4, §5, §6, §7, §8, §9

Another experiment relates to Escherichia coli 14828. The class given is cell-based. To be noted: 14828. The protocol:
as §2, §3, §4, §5, §6, §7, §8, §9

The subject of the next experiment is E. coli 11256. The class given is cell-based. To be noted: Escherichia coli; E. coli 11256; MHA agar, 37° C., 16-20 hours; read-out: MIC. As for the experimental part: as §2, §3, §4, §5, §6, §7, §8, §9
The test system of a further experiment is Escherichia coli 13897. In kind it is cell-based. To be noted: E. coli 13897, CRE clinical isolate, MHA agar, 37° C., 16-20 hours, read-out: MIC. The protocol:
as §2, §3, §4, §5, §6, §7, §8, §9

For a further experiment, the system named is Klebsiella oxytoca 14151. In kind it is cell-based. To be noted: 14151. As for the experimental part: as §2, §3, §4, §5, §6, §7, §8, §9
For the next experiment, the system named is Klebsiella oxytoca 6777. The class given is cell-based. To be noted: 6777. As for the experimental part:
as §2, §3, §4, §5, §6, §7, §8, §9

Another experiment deals with Escherichia coli 11119. The class given is cell-based. To be noted: 11119. As for the experimental part: as §2, §3, §4, §5, §6, §7, §8, §9
Another experiment has as its system Klebsiella oxytoca 14153. In kind it is cell-based. To be noted: 14153. The protocol:
as §2, §3, §4, §5, §6, §7, §8, §9

Experiment [7] relates to Klebsiella pneumoniae 12559. The class given is cell-based. The following applies: K.p 12559, CRE clinical isolate, MHA agar, 37° C., 16-20 hours, read-out: MIC. The protocol:
(§11) (2) Clinical isolated strains: CRE Klebsiella pneumoniae 5846, 11544, 12559, 13249 and CSE Klebsiella pneumoniae 8733, a total of 5 strains;
as §2, §3, §4, §5, §6, §7, §8, §9

Experiment [8] has as its system Klebsiella pneumoniae 8733. The class given is cell-based. To be noted: K.p 8733, CSE clinical isolate, MHA agar, 37° C., 16-20 hours, read-out: MIC. As for the experimental part: as §11, §2, §3, §4, §5, §6, §7, §8, §9
Experiment [9] concerns Klebsiella pneumoniae 11544. In kind it is cell-based. To be noted: 11544. The protocol:
as §11, §2, §3, §4, §5, §6, §7, §8, §9

The test system of experiment [10] is Klebsiella pneumoniae 5846. In kind it is cell-based. The following applies: 5846. The protocol:
as §11, §2, §3, §4, §5, §6, §7, §8, §9

The test system of experiment [11] is Klebsiella pneumoniae 13249. The class given is cell-based. To be noted: 13249. As for the experimental part:
as §11, §2, §3, §4, §5, §6, §7, §8, §9

The subject of experiment [12] is Enterobacter aerogenes 8193. The class given is cell-based. To be noted: Klebsiella aerogenes; E. ae 8193, CRE clinical isolate; MHA agar, 37° C., 16-20 hours; read-out: MIC. The protocol: CRE Enterobacter aerogenes 8193, a total of 1 strain;
as §2, §3, §4, §5, §6, §7, §8, §9

The subject of the next experiment is E. ae 14186. The class given is cell-based, Enterobacter aerogenes. The following applies: Klebsiella aerogenes, 14186. As for the experimental part:
as §2, §3, §4, §5, §6, §7, §8, §9

Experiment [13] relates to Acinetobacter baumannii 8476. In kind it is cell-based. To be noted: A.B 8476, CRE clinical isolate, MHA agar, 37° C., 16-20 hours, read-out: MIC. As for the experimental part: (§12) CRE Acinetobacter baumannii 8476, 6383, a total of 2 strains; CRE Serratia marcescens 14541, a total of 1 strain; all collected in the Department of Infectious Diseases, West China Hospital, Chengdu, Sichuan Province, and kept in our laboratory.
as §2, §3, §4, §5, §6, §7, §8, §9

For experiment [14], the system named is Acinetobacter baumannii 6383. In kind it is cell-based. To be noted: 6383. The protocol: as §12, §2, §3, §4, §5, §6, §7, §8, §9
The test system of experiment [15] is Serratia marcescens 14541. The class given is cell-based. The following applies: 14541. The protocol:
as §12, §2, §3, §4, §5, §6, §7, §8, §9

On to `C[C@H]1[C@H](NC(=O)/C(=N\OC(C)(C)C(=O)O)c2csc(N)n2)C(=O)N1S(=O)(=O)O` [Aztreonam, aztreonam, reference compound], for which the MIC in experiment [1] was 1 µg/mL (≈ 2.3 µM); in experiment [2], above 128 µg/mL; in experiment [3], 16 µg/mL (≈ 36.7 µM); in experiment [4], 8 µg/mL (≈ 18.4 µM); in experiment [5] it was below 0.25 µg/mL; in experiment [6], above 128 µg/mL. For the same molecule, the MIC in the experiment with Klebsiella oxytoca 12391 is 32 µg/mL (≈ 73.5 µM); in the experiment on Escherichia coli 14828, above 128 µg/mL; in the experiment with E. coli 11256 it was below 0.25 µg/mL; in the experiment with Escherichia coli 13897, 64 µg/mL (≈ 147 µM); in the experiment with Klebsiella oxytoca 14151 it was above 128 µg/mL; against Klebsiella oxytoca 6777 it was 128 µg/mL (≈ 294 µM). In addition, the minimum inhibitory concentration (MIC) in the experiment with Escherichia coli 11119 was above 128 µg/mL; with Klebsiella oxytoca 14153 it was above 128 µg/mL; in experiment [7] it was 4 µg/mL (≈ 9.19 µM); in [8], 8 µg/mL (≈ 18.4 µM); in experiment [9], above 128 µg/mL; in experiment [10] it was 128 µg/mL (≈ 294 µM). For the same molecule, the MIC is above 128 µg/mL in experiment [11]; 32 µg/mL (≈ 73.5 µM) in experiment [12]; above 128 µg/mL in the experiment on E. ae 14186; 64 µg/mL (≈ 147 µM) in [13]; 128 µg/mL (≈ 294 µM) in experiment [14]; above 128 µg/mL in experiment [15].
